Experimental data taken from US20210395239A1 (Hoffmann-La Roche Inc., priority 2018, published 2021).

Biological target: T1, human TLR7 (Homo sapiens, UniProt Q9NYK1)
T1 construct: host or cells: HEK293 (HEK-Blue hTLR7)
T1 sequence (Q9NYK1 27-1049): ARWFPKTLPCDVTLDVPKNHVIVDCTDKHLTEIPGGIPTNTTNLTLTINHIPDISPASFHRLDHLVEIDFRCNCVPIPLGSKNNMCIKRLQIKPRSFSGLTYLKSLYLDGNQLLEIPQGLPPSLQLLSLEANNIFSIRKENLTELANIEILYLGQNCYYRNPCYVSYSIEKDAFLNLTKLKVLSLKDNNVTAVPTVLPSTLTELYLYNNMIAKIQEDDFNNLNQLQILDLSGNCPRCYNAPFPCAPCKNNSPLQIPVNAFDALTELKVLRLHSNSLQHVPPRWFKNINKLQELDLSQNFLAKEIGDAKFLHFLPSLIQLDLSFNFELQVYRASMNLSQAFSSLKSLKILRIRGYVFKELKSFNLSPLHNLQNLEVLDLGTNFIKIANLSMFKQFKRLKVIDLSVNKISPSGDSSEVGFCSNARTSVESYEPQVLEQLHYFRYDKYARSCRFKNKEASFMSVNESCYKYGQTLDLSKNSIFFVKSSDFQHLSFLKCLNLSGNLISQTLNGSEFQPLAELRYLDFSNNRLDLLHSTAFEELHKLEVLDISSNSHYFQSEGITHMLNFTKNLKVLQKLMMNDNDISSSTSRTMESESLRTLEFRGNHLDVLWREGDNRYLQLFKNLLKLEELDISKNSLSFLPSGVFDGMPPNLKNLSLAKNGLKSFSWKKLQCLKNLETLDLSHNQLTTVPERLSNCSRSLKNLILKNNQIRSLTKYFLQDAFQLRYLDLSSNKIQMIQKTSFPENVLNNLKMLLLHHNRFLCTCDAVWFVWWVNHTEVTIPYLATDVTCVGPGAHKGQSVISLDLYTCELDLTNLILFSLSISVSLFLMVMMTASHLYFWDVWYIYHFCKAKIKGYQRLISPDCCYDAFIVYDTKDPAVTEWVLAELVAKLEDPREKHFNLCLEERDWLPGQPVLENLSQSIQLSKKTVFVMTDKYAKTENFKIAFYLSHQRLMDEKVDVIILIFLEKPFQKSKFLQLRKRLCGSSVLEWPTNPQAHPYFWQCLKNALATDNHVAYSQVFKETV
Assay: HEK293-Blue-hTLR-7 cells assay (SEAP reporter, R848 stimulation)
Type: cell-based
Details: HEK293-Blue-hTLR7 cells, R848, 20 hrs; read-out: HEK/hTLR7 IC50
Description: HEK293-Blue-hTLR-7 Cells Assay:
A stable HEK293-Blue-hTLR-7 cell line was purchased from InvivoGen (Cat. #: hkb-ht1r7, San Diego, Calif., USA). These cells were originally designed for studying the stimulation of human TLR7 by monitoring the activation of NF-κB. A SEAP (secreted embryonic alkaline phosphatase) reporter gene was placed under the control of the IFN-β minimal promoter fused to five NF-κB and AP-1-binding sites. The SEAP was induced by activating NF-κB and AP-1 via stimulating HEK-Blue hTLR7 cells with TLR7 ligands. Therefore the reporter expression was declined by TLR7 antagonist under the stimulation of a ligand, such as R848 (Resiquimod), for incubation of 20 hrs. The cell culture supernatant SEAP reporter activity was determined using QUANTI-Blue™ kit (Cat. #: rep-qb1, Invivogen, San Diego, Ca, USA) at a wavelength of 640 nm, a detection medium that turns purple or blue in the presence of alkaline phosphatase.
HEK293-Blue-hTLR7 cells were incubated at a density of […] cells/mL in a volume of 170 μL in a 96-well plate in Dulbecco's Modified Eagle's medium (DMEM) containing 4.5 g/L glucose, 50 U/mL penicillin, […], […], 2 mM L-glutamine, 10% (v/v) heat-inactivated fetal bovine serum with addition of 20 μL test compound in a serial dilution in the presence of final DMSO at 1% and 10 μL of 20 uM R848 in above DMEM, perform incubation under 37° C. in a CO2 incubator for 20 hrs. Then 20 μL of the supernatant from each well was incubated with 180 μL Quanti-blue substrate solution at 37° C. for 2 hrs and the absorbance was read at 620˜655 nm using a spectrophotometer. The signaling pathway that TLR7 activation leads to downstream NF-κB activation has been widely accepted, and therefore similar reporter assay was modified for evaluating TLR7 antagonist.

| Compound | IC50 [nM] |
| --- | --- |
| [2H]c1ccc2c(N3C[C@H](CN4CCN(c5ncc(N6CC(C)(N)C6)cc5C)CC4)O[C@H](C)C3)ccc(C#N)c2n1 [Example 139, 5-[(2S,6R)-2-[[4-[5-(3-amino-3-methyl-azetidin-1-yl)-3-methyl-2-pyridyl]piperazin-1-yl]methyl]-6-methyl-morpholin-4-yl]-2-deuterio-quinoline-8-carbonitrile] | 20 |
| [2H]c1ccc2c(N3C[C@H](CN4CC(O)(c5ccc(N6CC(C)(N)C6)cc5)C4)O[C@H](C)C3)ccc(C#N)c2n1 [Example 156, 5-[(2S,6R)-2-[[3-[4-(3-amino-3-methyl-azetidin-1-yl)phenyl]-3-hydroxy-azetidin-1-yl]methyl]-6-methyl-morpholin-4-yl]-2-deuterio-quinoline-8-carbonitrile] | 21 |
| C[C@@H]1CN(c2ccc(C#N)n3nccc23)C[C@H](CN2CC(c3ccc(N4CC(C)(N)C4)nc3)C2)O1 [Example 157, 4-[(2S,6R)-2-[[3-[6-(3-amino-3-methyl-azetidin-1-yl)-3-pyridyl]azetidin-1-yl]methyl]-6-methyl-morpholin-4-yl]pyrazolo[1,5-a]pyridine-7-carbonitrile] | 8 |
| [2H]c1ccc2c(N3C[C@H](CN4CCN(c5cnc(N6CC(C)(N)C6)cc5C)CC4)O[C@H](C)C3)ccc(C#N)c2n1 [Example 133, 5-[(2S,6R)-2-[[4-[6-(3-amino-3-methyl-azetidin-1-yl)-4-methyl-3-pyridyl]piperazin-1-yl]methyl]-6-methyl-morpholin-4-yl]-2-deuterio-quinoline-8-carbonitrile] | 41 |
| [2H]c1ccc2c(N3C[C@H](CN4CC(c5cnc(N6CC(C)(N)C6)cc5C)C4)O[C@H](C)C3)ccc(C#N)c2n1 [Example 145, 5-[(2S,6R)-2-[[3-[6-(3-amino-3-methyl-azetidin-1-yl)-4-methyl-3-pyridyl]azetidin-1-yl]methyl]-6-methyl-morpholin-4-yl]-2-deuterio-quinoline-8-carbonitrile] | 14 |
| [2H]c1ccc2c(N3C[C@H](CN4CC(c5cnc(N6C[C@@H](N)[C@H](OC)C6)cc5C)C4)O[C@H](C)C3)ccc(C#N)c2n1 [Example 146, 5-[(2S,6R)-2-[[3-[6-[(3R,4R)-3-amino-4-methoxy-pyrrolidin-1-yl]-4-methyl-3-pyridyl]azetidin-1-yl]methyl]-6-methyl-morpholin-4-yl]-2-deuterio-quinoline-8-carbonitrile] | 13 |
| [2H]c1ccc2c(N3C[C@H](CN4CCN(c5nc(OC)cc(N6CC(C)(N)C6)n5)CC4)O[C@H](C)C3)ccc(C#N)c2n1 [Example 131, 5-[(2S,6R)-2-[[4-[4-(3-amino-3-methyl-azetidin-1-yl)-6-methoxy-pyrimidin-2-yl]piperazin-1-yl]methyl]-6-methyl-morpholin-4-yl]-2-deuterio-quinoline-8-carbonitrile] | 32 |
| COc1cc(N2CCN(C[C@H]3CN(c4ccc(C#N)c5ncccc45)C[C@@H](C)O3)CC2)nc(N2CCNCC2)n1 [Example 91, 5-[(2S,6R)-2-[[4-(6-methoxy-2-piperazin-1-yl-pyrimidin-4-yl)piperazin-1-yl]methyl]-6-methyl-morpholin-4-yl]quinoline-8-carbonitrile] | 13 |

Second part, the compound after the results:

| IC50 [nM] | Compound |
| --- | --- |
| 5 | CO[C@H]1CN(c2cc(C)nc(N3CCN(C[C@H]4CN(c5ccc(C#N)c6nccnc56)C[C@@H](C)O4)CC3)n2)C[C@H]1N [Example 122, 8-[(2S,6R)-2-[[4-[4-[(3R,4S)-3-amino-4-methoxy-pyrrolidin-1-yl]-6-methyl-pyrimidin-2-yl]piperazin-1-yl]methyl]-6-methyl-morpholin-4-yl]quinoxaline-5-carbonitrile] |
| 47 | Cc1cc(N2C[C@@H](N)[C@](C)(O)C2)nc(N2CCN(C[C@H]3CN(c4ccc(C#N)c5nccnc45)C[C@@H](C)O3)CC2)n1 [Example 125, 8-[(2S,6R)-2-[[4-[4-[(3R,4R)-4-amino-3-hydroxy-3-methyl-pyrrolidin-1-yl]-6-methyl-pyrimidin-2-yl]piperazin-1-yl]methyl]-6-methyl-morpholin-4-yl]quinoxaline-5-carbonitrile] |
| 16 | [2H]c1ccc2c(N3C[C@H](CN4CCN(c5nc(C)cc(N6CC(C)(N)C6)n5)CC4)O[C@H](C)C3)ccc(C#N)c2n1 [Example 135, 5-[(2S,6R)-2-[[4-[4-(3-amino-3-methyl-azetidin-1-yl)-6-methyl-pyrimidin-2-yl]piperazin-1-yl]methyl]-6-methyl-morpholin-4-yl]-2-deuterio-quinoline-8-carbonitrile] |
| 29 | Cc1ccc(N2C[C@H](CN3CCN(c4ccnc(N5CCN[C@@H](C)C5)n4)CC3)O[C@H](C)C2)c2nccnc12 [Example 127, (2R,6S)-2-methyl-6-[[4-[2-[(3S)-3-methylpiperazin-1-yl]pyrimidin-4-yl]piperazin-1-yl]methyl]-4-(8-methylquinoxalin-5-yl)morpholine] |
| 16 | COC1CCN(c2nccc(N3CCN(C[C@H]4CN(c5ccc(C#N)c6ncccc56)C[C@@H](C)O4)CC3)n2)CC1N (stereo partly drawn) [Example 109, 5-[(2S,6R)-2-[[4-[2-(3-amino-4-methoxy-1-piperidyl)pyrimidin-4-yl]piperazin-1-yl]methyl]-6-methyl-morpholin-4-yl]quinoline-8-carbonitrile] |
| 4 | Cc1cc(N2C[C@@H](N)[C@@H](F)C2)nc(N2CCN(C[C@H]3CN(c4ccc(C#N)c5nccnc45)C[C@@H](C)O3)CC2)n1 [Example 115, 8-[(2S,6R)-2-[[4-[4-[(3R,4S)-3-amino-4-fluoro-pyrrolidin-1-yl]-6-methyl-pyrimidin-2-yl]piperazin-1-yl]methyl]-6-methyl-morpholin-4-yl]quinoxaline-5-carbonitrile] |
| 11 | CO[C@H]1CN(c2nccc(N3CCN(C[C@H]4CN(c5ccc(C#N)c6nccnc56)C[C@@H](C)O4)CC3)n2)C[C@@H]1N [Example 99, 8-[(2S,6R)-2-[[4-[2-[(3S,4S)-3-amino-4-methoxy-pyrrolidin-1-yl]pyrimidin-4-yl]piperazin-1-yl]methyl]-6-methyl-morpholin-4-yl]quinoxaline-5-carbonitrile] |
| 16 | Cc1ccc(N2C[C@H](CN3CCN(c4ccnc(N5CC(N)C5)n4)CC3)O[C@H](C)C2)c2nccnc12 [Example 130, 1-[4-[4-[[(2S,6R)-6-methyl-4-(8-methylquinoxalin-5-yl)morpholin-2-yl]methyl]piperazin-1-yl]pyrimidin-2-yl]azetidin-3-amine] |
| 20 | Cc1ccc(N2C[C@H](CN3CCN(c4ccnc(N5C[C@H]6NCCO[C@@H]6C5)n4)CC3)O[C@H](C)C2)c2nccnc12 [Example 129, (4aR,7aR)-6-[4-[4-[[(2S,6R)-6-methyl-4-(8-methylquinoxalin-5-yl)morpholin-2-yl]methyl]piperazin-1-yl]pyrimidin-2-yl]-3,4,4a,5,7,7a-hexahydro-2H-pyrrolo[3,4-b][1,4]oxazine] |
| 11 | [2H]c1ccc2c(N3C[C@H](CN4CCN(c5nc(C)cc(N6C[C@@H](N)[C@H](OC)C6)n5)CC4)O[C@H](C)C3)ccc(C#N)c2n1 [Example 144, 5-[(2S,6R)-2-[[4-[4-[(3R,4R)-3-amino-4-methoxy-pyrrolidin-1-yl]-6-methyl-pyrimidin-2-yl]piperazin-1-yl]methyl]-6-methyl-morpholin-4-yl]-2-deuterio-quinoline-8-carbonitrile] |
